# Data from US6660870B1, “2-acylaminobenzimidazole derivatives for treating glaucoma” (Alcon, Inc., priority 2000, dated 2003).
# How the values were obtained:
# brain 5-HT2 receptors = brain 5-HT2 receptors (Rattus norvegicus, UniProt P14842); experiment: 5-HT2 Receptor Binding Assay ([125I]DOI competition); conditions: competition for [125I]DOI binding, post mortem rat or human cerebral cortex homogenates
# Experimental: 5-HT2 Receptor Binding Assay
# Aliquots of post mortem rat or human cerebral cortex homogenates (400 μl) dispersed in 50 mM TrisHCl buffer (pH 7.4) are incubated with [^125I]DOI (80 pM final) in the absence or presence of methiothepin (10 μM final) to define total and non-specific binding, respectively, in a total volume of 0.5 ml. The assay mixture is incubated for 1 hour at 23° C. in polypropylene tubes and the assays terminated by rapid vacuum filtration over Whatman GF/B glass fiber filters previously soaked in 0.3% polyethyleneimine using ice-cold buffer. Test compounds (at different concentrations) are substituted for methiothepin. Filter-bound radioactivity is determined by scintillation spectrometry on a beta counter. The data are analyzed using a non-linear. iterative curve-fitting computer program [Trends Pharmacol. Sci., 16, 413 (1995)] to determine the compound affinity parameter. The concentration of the compound needed to inhibit the [^125I]DOI binding by 50% of the maximum is termed the IC50 […].
# 5-HT2 receptor = target: T1, 5-HT2 receptor (Rattus norvegicus, UniProt P14842); experiment: 5-HT2 Functional Assay: Phosphoinositide (PI) Turnover Assay; format: cell-based; conditions: for EC50: [3H]inositol phosphate production in A7r5 rat vascular smooth muscle cells
# T1 construct: A7r5 rat vascular smooth muscle cells; endogenous in cells; host or cells: A7r5 rat vascular smooth muscle cells
# Experimental: 5-HT2 Functional Assay: Phosphoinositide (PI) Turnover Assay
# The relative agonist activity of serotonergic compounds at the 5-HT2 receptor can be determined in vitro using the ability of the compounds to stimulate the production of [^3H]inositol phosphates in [^3H]myo-inositol-labeled A7r5 rat vascular smooth muscle cells by their ability to activate the enzyme phospholipase C. These cells are grown in culture plates, maintained in a humidified atmosphere of 5% CO2 and 95% air and fed semi-weekly with Dulbecco's modified Eagle medium (DMEM) containing 4.5 g/l glucose and supplemented with 2 mM glutamine, 10 μg/ml gentamicin, and 10% fetal bovine serum. For the purpose of conducting the phosphoinositide (PI) turnover experiments, the A7r5 cells are cultured in 24-well plates as previously [J. Pharmacol. Expt. Ther., 286, 411 (1998)]. Confluent cells are exposed for 24-30 hrs to 1.5 μCi [^3H]-myo-inositol (18.3 Ci/mmol) in 0.5 ml of serum-free medium. Cells are then rinsed once with DMEM/F-12 containing 10 mM LiCl prior to incubation with the test agent (or solvent as the control) in 1.0 ml of the same medium for 1 hr at 37° C., after which the medium is aspirated and 1 ml of cold 0.1 M formic acid added to stop the reaction. The chromatographic separation of [^3H]-inositol phosphates ([^3H]-IPs) on an AG-1-X8 column is performed as previously described [J. Pharmacol. Expt. […] The eluate (4 ml) is collected, mixed with 15 ml scintillation fluid, and the total [^3H]-IPs determined by scintillation counting on a beta-counter. Concentration-response data are analyzed by the sigmoidal fit function of the Origin Scientific Graphics software (Microcal Software, Northampton, Mass.) to determine agonist potency (EC50 value) and efficacy (Emax). Serotonin (5-HT) is used as a positive control (standard) agonist compound and the efficacy of test compounds is compared to that of 5-HT (set at 100%).
# T1 sequence (P14842 whole entry): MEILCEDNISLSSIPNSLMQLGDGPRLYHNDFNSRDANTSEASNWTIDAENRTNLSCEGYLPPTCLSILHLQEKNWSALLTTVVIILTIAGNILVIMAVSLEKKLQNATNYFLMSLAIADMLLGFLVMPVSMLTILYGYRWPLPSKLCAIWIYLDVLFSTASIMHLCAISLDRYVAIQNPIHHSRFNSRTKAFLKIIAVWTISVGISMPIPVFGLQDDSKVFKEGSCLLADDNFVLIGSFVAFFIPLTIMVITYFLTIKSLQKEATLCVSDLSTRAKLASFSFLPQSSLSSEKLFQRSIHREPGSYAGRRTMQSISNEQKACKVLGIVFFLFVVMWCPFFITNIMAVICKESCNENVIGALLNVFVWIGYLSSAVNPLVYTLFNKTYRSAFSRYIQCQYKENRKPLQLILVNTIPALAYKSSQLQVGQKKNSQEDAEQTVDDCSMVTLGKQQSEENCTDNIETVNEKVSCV
# brain 5-HT2 receptors, sequence (P14842 whole entry): as above
SMILES,IC50 (brain 5-HT2 receptors) [µM],EC50 (5-HT2 receptor) [µM],"Emax (5-HT2 receptor; A7R5, read-out: Efficacy (Emax, %)) [%]"
COc1cc(C[C@@H](C)N)c(OC)cc1I [(R)-DOI],0.00046,0.277,
"Cc1ccc(C(=O)Nc2nc3ccccc3n2CCN(C)C)cc1 [Example 1, 1-(N,N-Dimethylaminoethyl)-2-(4-methylbenzamido)benzimidazole]",,0.404,35
